From ChEMBL document CHEMBL1154987, “C-Aryl glycoside inhibitors of SGLT2: Exploration of sugar modifications including C-5 spirocyclization” (Bioorg Med Chem Lett, 2010)

Columns and labels:
[1] = target: T1, Sodium/glucose cotransporter 2 (Homo sapiens, UniProt P31639); test: Inhibition of human SGLT2 expressed in CHO cells assessed as inhibition of sodium-dependent methyl-alpha-D-[U-14C]glucopyranoside uptake after 2 hrs; assay type: cell-based
T1 sequence (P31639 whole entry): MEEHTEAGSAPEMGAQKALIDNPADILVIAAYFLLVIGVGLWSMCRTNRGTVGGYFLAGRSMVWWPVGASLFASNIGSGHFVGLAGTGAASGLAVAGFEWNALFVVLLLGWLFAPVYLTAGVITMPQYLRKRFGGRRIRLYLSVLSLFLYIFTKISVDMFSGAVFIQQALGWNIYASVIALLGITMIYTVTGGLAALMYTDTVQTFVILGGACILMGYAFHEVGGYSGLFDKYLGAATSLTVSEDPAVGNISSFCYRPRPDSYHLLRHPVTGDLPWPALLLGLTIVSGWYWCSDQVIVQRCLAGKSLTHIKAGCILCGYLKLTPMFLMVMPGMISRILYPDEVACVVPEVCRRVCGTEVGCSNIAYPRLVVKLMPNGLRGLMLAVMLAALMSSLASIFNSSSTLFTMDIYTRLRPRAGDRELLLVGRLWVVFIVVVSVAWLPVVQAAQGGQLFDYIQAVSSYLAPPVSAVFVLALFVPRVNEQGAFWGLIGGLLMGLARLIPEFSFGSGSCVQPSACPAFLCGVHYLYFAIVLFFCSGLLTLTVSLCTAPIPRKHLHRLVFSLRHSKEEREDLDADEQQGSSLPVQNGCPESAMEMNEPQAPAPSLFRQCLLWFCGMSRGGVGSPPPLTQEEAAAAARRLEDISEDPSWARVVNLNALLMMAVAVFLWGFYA

[2] = target: T2, Sodium/glucose cotransporter 1 (Homo sapiens, UniProt P13866); test: Inhibition of human SGLT1 expressed in CHO cells assessed as inhibition of sodium-dependent methyl-alpha-D-[U-14C]glucopyranoside uptake after 2 hrs; assay type: cell-based
T2 sequence (P13866 whole entry): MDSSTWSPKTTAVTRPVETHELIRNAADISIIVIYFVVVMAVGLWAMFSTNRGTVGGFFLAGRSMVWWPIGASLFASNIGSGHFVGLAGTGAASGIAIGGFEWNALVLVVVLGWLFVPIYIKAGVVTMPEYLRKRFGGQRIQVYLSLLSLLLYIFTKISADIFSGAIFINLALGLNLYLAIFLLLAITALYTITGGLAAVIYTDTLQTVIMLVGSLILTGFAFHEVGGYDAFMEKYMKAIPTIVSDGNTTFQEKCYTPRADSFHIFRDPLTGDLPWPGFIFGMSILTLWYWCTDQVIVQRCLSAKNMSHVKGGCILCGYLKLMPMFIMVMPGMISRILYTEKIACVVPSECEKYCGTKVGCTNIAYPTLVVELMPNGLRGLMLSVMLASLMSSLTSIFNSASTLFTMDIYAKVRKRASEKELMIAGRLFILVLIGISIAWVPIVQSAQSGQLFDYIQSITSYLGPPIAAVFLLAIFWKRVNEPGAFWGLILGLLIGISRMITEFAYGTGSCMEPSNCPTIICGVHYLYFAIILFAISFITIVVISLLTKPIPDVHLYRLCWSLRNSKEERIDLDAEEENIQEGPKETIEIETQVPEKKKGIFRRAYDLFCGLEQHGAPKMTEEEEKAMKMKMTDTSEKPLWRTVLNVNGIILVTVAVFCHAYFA

[3] = Volume of distribution at steady state in Sprague-Dawley rat at 2 mg/kg, iv; assay type: ADME, organism-based; design: dose 2 mg/kg, route intravenous; settings: in vivo, read-out: Vdss
[4] = Clearance in Sprague-Dawley rat at 2 mg/kg, iv; assay type: ADME, organism-based; design: dose 2 mg/kg, route intravenous; settings: in vivo
[5] = Half life in Sprague-Dawley rat at 2 mg/kg, iv; assay type: ADME, organism-based; design: dose 2 mg/kg, route intravenous; settings: in vivo
[6] = Oral bioavailability in Sprague-Dawley rat at 5 mg/kg; assay type: ADME, organism-based; settings: in vivo
[7] = Volume of distribution at steady state in Sprague-Dawley rat at 1 mg/kg, iv; assay type: ADME, organism-based; design: dose 1 mg/kg, route intravenous; settings: in vivo, read-out: Vdss
[8] = Clearance in Sprague-Dawley rat at 1 mg/kg, iv; assay type: ADME, organism-based; design: dose 1 mg/kg, route intravenous; settings: in vivo
[9] = Half life in Sprague-Dawley rat at 1 mg/kg, iv; assay type: ADME, organism-based; design: dose 1 mg/kg, route intravenous; settings: in vivo
Homo sapiens = organism: Homo sapiens; test: Selectivity ratio of IC50 for human SGLT2 over IC50 for human SGLT1
Rattus norvegicus = test: Antidiabetic activity in Sprague-Dawley rat assessed as maximum urinary glucose excretion at 60 mg/kg, po over 24 hrs measured per 200 g body weight; assay type: functional, Urine

IC50 [1] [nM]	IC50 [2] [nM]	Structure (SMILES)	also measured
53	1100	CCc1ccc(Cc2cc([C@@H]3O[C@]4(CCCO4)[C@@H](O)[C@H](O)[C@H]3O)ccc2C)cc1	–
139	–	CCc1ccc(Cc2cc([C@@H]3O[C@H](CO)[C@H](O)[C@H](O)[C@H]3O)ccc2C)cc1	–
1.5	–	CCc1ccc(Cc2cc([C@@H]3O[C@H](CO)[C@@H](O)[C@H](O)[C@H]3O)ccc2C)cc1	–
3700	–	CCc1ccc(Cc2cc([C@@H]3O[C@H](CO)[C@@H](O)[C@@H](O)[C@H]3O)ccc2C)cc1	–
–	–	CCOc1ccc(Cc2cc([C@@H]3O[C@H](CO)[C@@H](O)[C@H](O)[C@H]3O)ccc2Cl)cc1 [DAPAGLIFLOZIN]	Vd [3]: 3.8 L/kg; clearance [4]: 10 mL/min/kg; half-life [5]: 264 min; bioavailability [6]: 100%
59	6800	COc1ccc(Cc2cc([C@@H]3OC(CO)(CO)[C@@H](O)[C@H](O)[C@H]3O)ccc2Cl)cc1	–
2.4	73	COc1ccc(Cc2cc([C@@H]3O[C@H](C)[C@@H](O)[C@H](O)[C@H]3O)ccc2Cl)cc1	–
> 10000	–	CCc1ccc(Cc2cc([C@H]3C[C@@H](O)[C@H](O)[C@@H](CO)O3)ccc2C)cc1	–
3	190	CCc1ccc(Cc2cc([C@@H]3OC4(CC4)[C@@H](O)[C@H](O)[C@H]3O)ccc2C)cc1	Vd [7]: 5.7 L/kg; clearance [8]: 112 mL/min/kg; half-life [9]: 35.4 min; Ratio IC50 (Homo sapiens): 63
5.1	–	COc1ccc(Cc2cc([C@@H]3O[C@H](CF)[C@@H](O)[C@H](O)[C@H]3O)ccc2Cl)cc1	–
6.6	1540	COc1ccc(Cc2cc([C@@H]3OC4(COC4)[C@@H](O)[C@H](O)[C@H]3O)ccc2C)cc1	Vd [3]: 2.3 L/kg; clearance [4]: 22.3 mL/min/kg; half-life [5]: 72 min; Activity (Rattus norvegicus): 2000 mg; bioavailability [6]: 100%
3.4	1500	CCc1ccc(Cc2cc([C@@H]3OC4(COC4)[C@@H](O)[C@H](O)[C@H]3O)ccc2C)cc1	–
14	> 10000	CCc1ccc(Cc2cc([C@@H]3OC4(CS(=O)(=O)C4)[C@@H](O)[C@H](O)[C@H]3O)ccc2C)cc1	–
21	–	COc1ccc(Cc2cc([C@@H]3O[C@H](CO)C[C@H](O)[C@H]3O)ccc2Cl)cc1	–
5100	> 10000	CCc1ccc(Cc2cc([C@@H]3OC4(CNC4)[C@@H](O)[C@H](O)[C@H]3O)ccc2C)cc1	–
2000	–	CCc1ccc(Cc2cc([C@@H]3O[C@H](CO)[C@@H](O)C[C@H]3O)ccc2C)cc1	–
32	5600	CCOc1ccc(Cc2cc([C@@H]3OC4(COC4)[C@@H](O)[C@H](O)[C@H]3O)ccc2Cl)cc1	–
180	–	COc1ccc(Cc2cc([C@@H]3O[C@H](CO)[C@@H](OC)[C@H](O)[C@H]3O)ccc2Cl)cc1	–
140	–	COc1ccc(Cc2cc([C@@H]3O[C@H](CO)[C@@H](O)[C@H](O)[C@H]3OC)ccc2Cl)cc1	–
1	240	COc1ccc(Cc2cc([C@@H]3O[C@H](CO)[C@@H](O)[C@H](O)[C@H]3O)ccc2Cl)cc1	–
7.9	370	COc1ccc(Cc2cc([C@@H]3OC4(CC4)[C@@H](O)[C@H](O)[C@H]3O)ccc2C)cc1	Vd [7]: 2.6 L/kg; clearance [8]: 48.9 mL/min/kg; half-life [9]: 36.6 min; Ratio IC50 (Homo sapiens): 47
23	> 9600	COc1ccc(Cc2cc([C@@H]3OC4(COC4)[C@@H](O)[C@H](O)[C@H]3O)ccc2Cl)cc1	–
